A short description of series [1]: Selectivity index, ratio of CC50 for human MRC-5 cells to EC50 for antitrypanosomal activity against intracellular Trypanosoma cruzi Tulahuen amastigotes expressing CL2 beta-galactosidase in human MRC5 cells. The settings on record: read-out: Selectivity Index. It counts as toxicity, cell-based.
For series [2], the system named is Trypanosoma cruzi. The series can be described thus: Antitrypanosomal activity against intracellular Trypanosoma cruzi Tulahuen amastigotes expressing CL2 beta-galactosidase in human MRC5 cells assessed as parasite growth inhibition using chlorophenol red beta-D-galactopyranoside as substrate treated for 7 days by spectrophotometry. It counts as functional, organism-based. The note with it: MRC5, 168 h.

Series [3] can be described thus: Cytotoxicity against human MRC5 fibroblast cells assessed as reduction in cell viability measured after 3 days by fluorometry. It counts as toxicity, cell-based. The note with it: time 3 day.
The nature of series [4]: Selectivity index, ratio of CC50 for Swiss mouse peritoneal macrophages to EC50 for antileishmanial activity against intracellular Leishmania infantum MHOM/MA(BE)/67 amastigotes infected in Swiss mouse peritoneal macrophages. In kind it is toxicity, cell-based. The note with it: read-out: Selectivity Index.
The test system of a further series is Leishmania infantum. The series can be described thus: Antileishmanial activity against intracellular Leishmania infantum MHOM/MA(BE)/67 amastigotes infected in Swiss mouse peritoneal macrophages assessed as parasite growth inhibition incubated for 5 days by giemsa staining based microscopic analysis. The note with it: MHOM/MA(BE)/67, Macrophage, 120 h. It counts as functional, organism-based.

Series [5] in a line: Cytotoxicity against Swiss mouse peritoneal macrophages assessed as reduction in cell viability measured after 5 days by microscopic analysis. In kind it is toxicity, cell-based, Macrophage. The settings on record: time 5 day.
Series [6] deals with Trypanosoma cruzi. The series can be described thus: Antitrypanosomal activity against Trypanosoma cruzi Y strain infected in acute CD Swiss Webster mouse model assessed as reduction in parasitemia at 100 mg/kg, po qd for 5 consecutive days by light microscopy relative to control. In kind it is functional. Set-up: scale not given: the % may be the effect or the level left. The note with it: time 5 day.

A short description of series [7]: Toxicity in acute CD Swiss Webster mouse model infected with Trypanosoma cruzi Y strain assessed as animal survival at 100 mg/kg, po qd for 5 consecutive days measured daily for upto 30 days post-treatment. It counts as organism-based. The settings on record: in vivo, 720 h, time < 30 day.

The term EC50 denotes the concentration at which the effect is half-maximal. As a reminder, the CC50 is the concentration giving 50% cytotoxicity. In the case of `OC[C@H]1O[C@@H](n2ccc3c(NC4CCCC4)ncnc32)[C@H](O)[C@@H]1O`, the selectivity ratio was above 4.41 in series [1] and above 1.83 in series [4]. The figures for the concentration giving a half-maximal response (EC50) with Trypanosoma cruzi [2] and in the series with Leishmania infantum were 14.5 µM and 35 µM, respectively. Further, the CC50 at 72 h in series [3] was above 64 µM. The CC50 at 120 h in series [5] is above 64 µM.
`O=C(Cn1ccnc1[N+](=O)[O-])NCc1ccccc1` [BENZNIDAZOLE]: the Activity in the series with Trypanosoma cruzi [6] was found to be 100%. Further, the Survival result in series [7] is “Non-Toxic”.
Consider `OC[C@H]1O[C@@H](n2ccc3c(NC4CC4)ncnc32)[C@H](O)[C@@H]1O`, for which the selectivity ratio in series [1] is above 28.1; in series [4] it was 3.47. In addition, the EC50 in the series with Trypanosoma cruzi [2] was determined as 2.28 µM; with Leishmania infantum, 0.36 µM. Also, the cytotoxic concentration (CC50) at 72 h in series [3] is above 64 µM. Besides, the cytotoxic concentration (CC50) at 120 h in series [5] stood at 1.25 µM.
On to `CC1CCN(c2ncnc3c2ccn3[C@@H]2O[C@H](CO)[C@@H](O)[C@H]2O)CC1`, for which the selectivity ratio in series [1] is above 8.15; in series [4], 3.08. The EC50 with Trypanosoma cruzi [2] came to 7.84 µM; in the series on Leishmania infantum it was 2.6 µM. In addition, in series [3], the CC50 at 72 h is above 64 µM. In addition, the CC50 at 120 h in series [5] stood at 8 µM.
Turning to `CCCCNc1ncnc2c1ccn2[C@@H]1O[C@H](CO)[C@@H](O)[C@H]1O`, the selectivity ratio in series [1] was above 15.5; in series [4], above 16.7. The EC50 in the series on Trypanosoma cruzi [2] came to 4.13 µM; in the series with Leishmania infantum, 3.84 µM. Besides, the CC50 at 72 h in series [3] is above 64 µM. Moreover, the CC50 at 120 h in series [5] was above 64 µM.
Take `OC[C@H]1O[C@@H](n2ccc3c(NCc4ccccc4)ncnc32)[C@H](O)[C@@H]1O`: the selectivity ratio in series [1] is above 8.56; in series [4], 4.59. The figures for the EC50 with Trypanosoma cruzi [2] and in the series on Leishmania infantum were 7.48 µM and 1.09 µM, respectively. For the same compound, in series [3], the CC50 at 72 h was above 64 µM. In addition, in series [5], the CC50 at 120 h came to 5 µM.
On to `Nc1nc(N)c2ccn([C@@H]3O[C@H](CO)[C@@H](O)[C@H]3O)c2n1`, for which the selectivity ratio in series [1] was 6.6; in series [4] it was above 2.99. Besides, the half-maximal effective concentration (EC50) with Trypanosoma cruzi [2] is 1.36 µM; with Leishmania infantum it was 21.4 µM. Also, in series [3], the CC50 at 72 h was above 64 µM. Besides, the half-maximal cytotoxic concentration (CC50) at 120 h in series [5] was above 64 µM.
As for `OC[C@H]1O[C@@H](n2ccc3c(N4CCCCC4)ncnc32)[C@H](O)[C@@H]1O`, the selectivity ratio in series [1] is above 8.27; in series [4] it was 1.8. The concentration for a half-maximal effect (EC50) came out at 7.74 µM in the series with Trypanosoma cruzi [2] and 1.11 µM with Leishmania infantum. Also, in series [3], the cytotoxic concentration (CC50) at 72 h was above 64 µM. For the same compound, the CC50 at 120 h in series [5] came out at 2 µM.
On to `OC[C@H]1O[C@@H](n2ccc3c(NC4CCCCC4)ncnc32)[C@H](O)[C@@H]1O`, for which the results for the selectivity ratio in series [1] and in series [4] were 5.7 and above 3.32, respectively. For the same compound, the 50% effective concentration (EC50) in the series with Trypanosoma cruzi [2] was found to be 7.82 µM; with Leishmania infantum, 19.3 µM. Further, the CC50 at 72 h in series [3] was 44.6 µM. Further, the CC50 at 120 h in series [5] was above 64 µM.
As to `Nc1ncnc2c1ccn2[C@@H]1O[C@H](CO)[C@@H](O)[C@H]1O` [TUBERCIDIN], the selectivity ratio in series [1] worked out at 6.6; in series [4], 1. The EC50 came out at 0.34 µM with Trypanosoma cruzi [2] and 0.13 µM in the series with Leishmania infantum. Also, the 50% cytotoxic concentration (CC50) at 72 h in series [3] is 2.23 µM. The CC50 at 120 h in series [5] came to 0.13 µM.
Consider `C=CCNc1ncnc2c1ccn2[C@@H]1O[C@H](CO)[C@@H](O)[C@H]1O`, for which the selectivity ratio turned out to be 3.45 in series [1] and 1.33 in series [4]. The figures for the EC50 in the series on Trypanosoma cruzi [2] and in the series with Leishmania infantum were 2.58 µM and 6.01 µM, respectively. The half-maximal cytotoxic concentration (CC50) at 72 h in series [3] was 8.9 µM. Besides, in series [5], the CC50 at 120 h was 8 µM.

The values above are taken from ChEMBL document CHEMBL5131491, “N6-modification of 7-Deazapurine nucleoside analogues as Anti-Trypanosoma cruzi and anti-Leishmania agents: Structure-activity relationship exploration and In vivo evaluation” (Eur J Med Chem, 2022).
